Common to all, as to assay: drug sensitivity score (DSS) from 5-dose viability curve (DSS (area-based score, 0 = no response)); higher = more sensitive (stronger viability inhibition); extreme values may be limits of the assay
Assay [1] relates to MDCK wild-type - doxycycline. The note with it: doxycycline: none; 72 h. The procedure, abridged:
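An oncology library of 528 drugs was pre-spotted at five doses (1-10,000 nM) in 384-well plates, and parental MDCK cells without doxycycline were added at 2000 cells/well. The plates were kept at 37 °C for 72 h. Drug sensitivity scores were obtained by fitting dose-response curves in the Breeze pipeline to CellTiter-Glo viability readings scaled per plate between vehicle and positive controls.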

The subject of assay [2] is MDCK wild-type + doxycycline. Particulars: doxycycline: 10 ng/mL; 72 h. The procedure, abridged: (§1)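 Two MDCK lines, parental and doxycycline-inducible, received doxycycline at 10 ng/mL in the medium before being plated at 2000 cells/well onto a pre-spotted 384-well oncology library of 528 drugs at five doses (1-10,000 nM). Incubation lasted 72 h at 37 °C. Viability was read by CellTiter-Glo luminescence, scaled per plate between vehicle and positive controls, and converted to drug sensitivity scores through Breeze curve fitting.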

In assay [3] the test system is MDCK p60AmotL2-inducible + doxycycline (p60AmotL2 expressing). Particulars: doxycycline: 10 ng/mL; 72 h. The procedure, abridged: as §1

As for `O=C(Nc1ccc(OC(F)(F)Cl)cc1)c1cnc(N2CC[C@@H](O)C2)c(-c2cc[nH]n2)c1` [Asciminib], the drug sensitivity score in assay [1], in assay [2] and in assay [3] was 0 throughout.

For the compound `CC(C)c1c(C(=O)Nc2ccccc2)c(-c2ccccc2)c(-c2ccc(F)cc2)n1CC[C@@H](O)C[C@@H](O)CC(=O)O` [Atorvastatin], the drug sensitivity score was found to be 0 in assay [1], 0 in assay [2] and 0.4 in assay [3].

`CC(=O)OC[C@H]1O[C@@H]([S-])[C@H](OC(C)=O)[C@@H](OC(C)=O)[C@@H]1OC(C)=O.CCP(CC)CC.[Au+]` [Auranofin]: the drug sensitivity score amounted to 4.2 in assay [1], 4.2 in assay [2] and 4.7 in assay [3].

`CNC(=O)c1ccccc1Sc1ccc2c(/C=C/c3ccccn3)n[nH]c2c1` [Axitinib]: the drug sensitivity score is 0 in assay [1], 0 in assay [2] and 5.7 in assay [3].

Consider `Nc1ncn([C@@H]2O[C@H](CO)[C@@H](O)[C@H]2O)c(=O)n1` [Azacitidine], for which the values for the drug sensitivity score in assay [1], in assay [2] and in assay [3] were 0.3, 0.6 and 0.7, respectively.

`Cc1cc(-c2nc(-c3ccc(OC(F)(F)F)cc3)no2)nn1Cc1ccnc(N2CCN(C3CC3)CC2)c1` [BAY 87-2243]: the drug sensitivity score in assay [1], in assay [2] and in assay [3] was 0 in each case.

On to `Nc1nc(Nc2ccc3c(c2)CC[C@@H](N2CCCC2)CC3)nn1-c1cc2c(nn1)-c1ccccc1CCC2` [BGB324], for which the drug sensitivity score in assay [1] turned out to be 5.1; in assay [2], 5; in assay [3], 5.8.

As for `O=C1CCc2c(Oc3ccc4c(c3)[C@@H]3[C@H](O4)[C@H]3c3nc4cc(C(F)(F)F)ccc4[nH]3)ccnc2N1` [BGB-283], the drug sensitivity score in assay [1] turned out to be 1.6; in assay [2], 5.4; in assay [3] it was 6.6.

Take `CC[C@@H]1C(=O)N(C)c2cnc(Nc3ccc(C(=O)NC4CCN(C)CC4)cc3OC)nc2N1C1CCCC1` [BI 2536]: the drug sensitivity score was 19.9 in assay [1], 15.6 in assay [2] and 15.9 in assay [3].

In the case of `COc1c(C)cnc(Cn2cnc3c(Cl)nc(N)nc32)c1C` [BIIB021], the drug sensitivity score in assay [1] came to 17.4; in assay [2], 19.6; in assay [3] it was 20.6.

Turning to `CC1(C)C(C(=O)Nc2ccc(S(=O)(=O)c3ccc(NC(=O)C4C(C)(C)C4(C)C)cc3)cc2)C1(C)C` [BRD7116], the drug sensitivity score in assay [1], in assay [2] and in assay [3] was 0 each time.

Regarding `O=C(Nc1cccc(Nc2ncc(Br)c(NCCc3cnc[nH]3)n2)c1)N1CCCC1` [BX-912], the values for the drug sensitivity score in assay [1], in assay [2] and in assay [3] were 0.1, 0.8 and 4.1, respectively.

On to `Cc1ccc(NC(=O)c2ccc(CN3CC[C@H](N(C)C)C3)c(C(F)(F)F)c2)cc1Nc1nccc(-c2cncnc2)n1` [Bafetinib], for which the drug sensitivity score in assay [1], in assay [2] and in assay [3] was 0 in each case.

Regarding `CCS(=O)(=O)N1CC(CC#N)(n2cc(-c3ncnc4[nH]ccc34)cn2)C1` [Baricitinib], the drug sensitivity score in assay [1], in assay [2] and in assay [3] was 0 in each case.

For `O=C(/C=C/c1cccc(S(=O)(=O)Nc2ccccc2)c1)NO` [Belinostat], the drug sensitivity score came to 14 in assay [1], 15.8 in assay [2] and 19 in assay [3].

As for `N#CC(c1ccnc(OCc2ccc(CN3CCOCC3)cc2)n1)c1nc2ccccc2s1` (stereo not drawn) [Bentamapimod], the drug sensitivity score is 1.2 in assay [1], 1.5 in assay [2] and 2.1 in assay [3].

Regarding `C=C(c1ccc(C(=O)O)cc1)c1cc2c(cc1C)C(C)(C)CCC2(C)C` [Bexarotene], the drug sensitivity score turned out to be 0.2 in assay [1], 0 in assay [2] and 0 in assay [3].

Take `CCNC(=O)CCC/C=C\C[C@@H]1[C@@H](/C=C/[C@@H](O)CCc2ccccc2)[C@H](O)C[C@@H]1O` [Bimatoprost]: the drug sensitivity score in assay [1], in assay [2] and in assay [3] was 0 each time.

As to `Cn1cnc2c(F)c(Nc3ccc(Br)cc3F)c(C(=O)NOCCO)cc21` [Binimetinib], the drug sensitivity score was determined as 0 in assay [1], 0 in assay [2] and 5.3 in assay [3].

As to `Cc1sc2c(c1C)C(c1ccc(Cl)cc1)=N[C@@H](CC(=O)Nc1ccc(O)cc1)c1nnc(C)n1-2` [Birabresib], the drug sensitivity score was determined as 5.8 in assay [1], 10.7 in assay [2] and 16.6 in assay [3].

In the case of `CC[C@H](NC(=O)[C@H](C)NC)C(=O)N1C[C@@H](O)C[C@H]1Cc1c(-c2[nH]c3cc(F)ccc3c2C[C@@H]2C[C@H](O)CN2C(=O)[C@H](CC)NC(=O)[C@H](C)NC)[nH]c2cc(F)ccc12` [Birinapant], the drug sensitivity score in assay [1], in assay [2] and in assay [3] was 0 each time.

As to `Cc1c(N)nc([C@H](CC(N)=O)NC[C@H](N)C(N)=O)nc1C(=O)N[C@H](C(=O)N[C@H](C)[C@@H](O)[C@H](C)C(=O)N[C@H](C(=O)NCCc1nc(-c2nc(C(=O)NCCC[S+](C)C)cs2)cs1)[C@@H](C)O)[C@@H](OC1OC(CO)C(O)C(O)C1OC1OC(CO)C(O)C(OC(N)=O)C1O)c1cnc[nH]1` (stereo partly drawn) [Bleomycin], the drug sensitivity score in assay [1] is 0; in assay [2], 0; in assay [3], 0.6.

With `CC(C)C[C@H](NC(=O)[C@H](Cc1ccccc1)NC(=O)c1cnccn1)B(O)O` [Bortezomib], the drug sensitivity score turned out to be 26.7 in assay [1], 25.9 in assay [2] and 25 in assay [3].

Consider `COc1cc(Nc2c(C#N)cnc3cc(OCCCN4CCN(C)CC4)c(OC)cc23)c(Cl)cc1Cl` [Bosutinib], for which the drug sensitivity score is 7.5 in assay [1], 10.4 in assay [2] and 14.1 in assay [3].

In the case of `COc1cc(N2CCC(N3CCN(C)CC3)CC2)ccc1Nc1ncc(Cl)c(Nc2ccccc2P(C)(C)=O)n1` [Brigatinib], the figures for the drug sensitivity score in assay [1], in assay [2] and in assay [3] were 4.1, 2.6 and 5.2, respectively.

With `Cc1cc2c(F)c(Oc3ncnn4cc(OC[C@@H](C)O)c(C)c34)ccc2[nH]1` [Brivanib], the drug sensitivity score in assay [1], in assay [2] and in assay [3] was 0 in each case.

`CCC/C=C/C=C/C(=O)O[C@H]1/C(=C/C(=O)OC)C[C@H]2C[C@H]([C@@H](C)O)OC(=O)C[C@H](O)C[C@@H]3C[C@H](OC(C)=O)C(C)(C)[C@](O)(C[C@@H]4C/C(=C/C(=O)OC)C[C@H](/C=C/C(C)(C)[C@]1(O)O2)O4)O3` [Bryostatin 1]: the drug sensitivity score in assay [1], in assay [2] and in assay [3] was 0 in each case.

For the compound `Nc1cc(C(F)(F)F)c(-c2cc(N3CCOCC3)nc(N3CCOCC3)n2)cn1` [Buparlisib], the drug sensitivity score in assay [1] came out at 5.1; in assay [2], 7; in assay [3] it was 6.3.

In the case of `Cc1nc2cccc(N)c2c(=O)n1C1CCC(=O)NC1=O` (stereo not drawn) [CC122], the drug sensitivity score in assay [1], in assay [2] and in assay [3] was 0 in each case.

`CCN1C(=O)CNc2ncc(-c3ccc(-c4nc[nH]n4)nc3C)nc21` [CC-115]: the drug sensitivity score in assay [1] stood at 8.9; in assay [2], 7.8; in assay [3], 9.4.

Turning to `CO[C@H]1CC[C@H](N2C(=O)CNc3ncc(-c4ccc(C(C)(C)O)nc4)nc32)CC1` [CC-223], the drug sensitivity score in assay [1] was determined as 2.8; in assay [2] it was 2.9; in assay [3], 5.2.

In the case of `COc1cc(C)[nH]c(=O)c1CNC(=O)c1c(C)n([C@H](C)C2CCOCC2)c2ccccc12` [CPI-360], the drug sensitivity score in assay [1] came out at 0; in assay [2], 0.1; in assay [3] it was 1.3.

For `Cc1noc2c1-c1ccccc1C(c1ccc(Cl)cc1)=N[C@H]2CC(N)=O` [CPI-0610], the drug sensitivity score in assay [1] worked out at 3.1; in assay [2], 4.8; in assay [3] it was 10.9.

Turning to `O=C(O)CCCCC(CCSCc1ccccc1)SCc1ccccc1` (stereo not drawn) [CPI-613], the drug sensitivity score in assay [1], in assay [2] and in assay [3] was 0 each time.

Turning to `CN(C)c1cc2c(cc1Sc1nc3c(N)nccc3n1CCNCC(C)(C)C)OCO2` [CUDC-305], the drug sensitivity score in assay [1] was 17.7; in assay [2] it was 17; in assay [3], 18.

`COc1ccc(-c2nc(N3CCOCC3)c3sc(CN(C)c4ncc(C(=O)NO)cn4)cc3n2)cn1` [CUDC-907]: the drug sensitivity score in assay [1] was 27.2; in assay [2], 28.3; in assay [3], 30.3.

Values taken from the supplement of paper PMC11003180.
